Test results from patent publication US20090137688A1, “PHARMACEUTICAL PRODUCT” (priority 2005, published 2009).
Where a name gives a salt, the structure may show the parent alone.

Test: Accumulative release from porous silicon samples immersed in PBS buffer, measured by UV spectroscopic technique
Assay type: physicochemical
Details: PBS buffer at 37 C; for rate of release when the porous silicon wafer has been coated with cocoa butter, relative to the uncoated state: Method A, cocoa butter layer approx. 1 mm, FIG. 1
Description: A number of experiments were performed to show the effect of an excipient upon the release of a beneficial substance from the pores of porous silicon. Three substances were tested: chlorambucil, amitriptyline hydrochloride, neutral red. The excipient employed was cocoa butter. Three methods of combining the porous silicon, excipient, and beneficial substance, were carried out.
Method A comprises the steps of: (a) dissolving the beneficial substance in ethanol; (b) introducing the ethanolic solution of the beneficial substance to the surface of the porous silicon wafer and allowing it to pass into the pores; (c) applying heat to the porous silicon wafer by means of a hot plate to drive off the ethanol, (d) removing the excess beneficial substance, that has not entered the pores, by washing with ethanol; (e) dropping melted cocoa butter oil onto the porous side of the wafer, which has been loaded with a beneficial substance; and (f) allowing the wafer to cool at an ambient temperature of 20 C for approximately one hour, the cocoa butter forming a layer, approximately 1 mm in depth, that coats the surface of the porous silicon.
Method B comprises the steps: (a) dissolving the beneficial substance and excipient in ethanol; (b) introducing the ethanolic solution of the beneficial substance and excipient to the surface of the porous silicon wafer and allowing it to pass into the pores; (c) applying heat to the porous silicon wafer by means of a hot plate thereby driving off the ethanol, and (d) removing the excess beneficial substance and excipient, that have not entered the pores, by washing with ethanol. The porosified wafer, utilized for methods A and B, comprised mesoporous silicon having a porosity of 74%.
Method C comprises the steps: (a) fabricating particles of porous silicon by milling one or more porous silicon membranes; (b) combining the silicon particles with an ethanolic solution of the beneficial substance in a flask; (c) removing the ethanol by rotary evaporation; (d) mixing the beneficial substance loaded particles with excipient, (e) introducing the mixture to a cylindrical die, and (f) applying a uniaxial pressure of 0.5 ton to form a pellet. The porous silicon membrane, utilized for method C, comprises mesoporous silicon having a porosity of: 77%.
Samples of porous silicon that have been combined with beneficial substance and excipient by methods A, B, and C were then immersed in PBS buffer at 37 C, and the accumulative release was measured by means of a UV spectroscopic technique.
The uncoated samples, the results for which are shown in FIG. 1, were prepared, with the steps (a) to (d) of method A.

[1] = mesoporous silicon wafer, porosity 74%

| SMILES | rate of release when the porous silicon wafer has been coated with cocoa butter, relative to the uncoated state [1] | rate of release for porous silicon loaded with beneficial substance alone, compared with solution loading with cocoa butter (Method B, mesoporous silicon wafer, porosity 74%, FIG. 2) | rate of release from pellet, excipient free sample versus pellet with equal mass of cocoa butter and porous silicon, during the first seven hours (Method C, compressed pellet, mesoporous silicon porosity 77%, FIG. 3) | rate of release from the excipient containing pellet beyond seven hours (Method C, pellet with equal mass of cocoa butter and porous silicon, FIG. 3) |
| --- | --- | --- | --- | --- |
| CN(C)CCC=C1c2ccccc2CCc2ccccc21 [amitriptyline hydrochloride] | slower |  |  |  |
| O=C(O)CCCc1ccc(N(CCCl)CCCl)cc1 [chlorambucil] | increases | faster than when the excipient is present | higher, from the excipient free sample | accelerates until it is higher than that of the excipient free sample |
